Paper PMC4526890, “Crystal structures of Mycobacterium tuberculosis GlgE and complexes with non-covalent inhibitors” (Scientific Reports, 2015)

Molecular target: T1, Mtb GlgE (Mycobacterium tuberculosis, UniProt P9WQ17)
T1 construct: full-length wild type, N-terminal His tag (modified pET-28), E. coli T7 Rosetta; homodimer, intermolecular C29 disulfide in crystal
Assay: X-ray crystal structure, […] Å, crystal soak
Type: binding
Conditions: 10 mM ligand, 1 h soak of maltose co-crystal; acceptor glucan site about 26 Å from M1P site; ternary complex with maltose

T1 sequence (P9WQ17 1-700): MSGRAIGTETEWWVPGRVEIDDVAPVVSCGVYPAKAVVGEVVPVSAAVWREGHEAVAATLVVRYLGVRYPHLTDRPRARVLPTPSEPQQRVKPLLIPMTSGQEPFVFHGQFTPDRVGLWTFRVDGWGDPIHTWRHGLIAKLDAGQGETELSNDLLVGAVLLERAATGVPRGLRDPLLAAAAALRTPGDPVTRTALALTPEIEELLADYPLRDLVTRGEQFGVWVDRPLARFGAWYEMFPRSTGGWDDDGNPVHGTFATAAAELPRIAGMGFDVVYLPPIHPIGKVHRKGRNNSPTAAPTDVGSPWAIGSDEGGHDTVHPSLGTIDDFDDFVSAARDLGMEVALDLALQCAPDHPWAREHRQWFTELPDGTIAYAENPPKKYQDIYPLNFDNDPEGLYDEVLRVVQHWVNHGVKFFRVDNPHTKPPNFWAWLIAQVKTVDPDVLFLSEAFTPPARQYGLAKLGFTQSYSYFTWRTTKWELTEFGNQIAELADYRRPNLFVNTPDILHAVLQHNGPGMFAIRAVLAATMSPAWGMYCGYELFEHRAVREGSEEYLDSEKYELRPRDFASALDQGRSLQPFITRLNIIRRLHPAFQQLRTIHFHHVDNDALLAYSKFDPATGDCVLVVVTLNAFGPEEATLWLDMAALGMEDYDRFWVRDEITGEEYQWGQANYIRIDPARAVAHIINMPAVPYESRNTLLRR

OC[C@H]1O[C@H](O[C@H]2[C@H](O)[C@@H](O)[C@@H](O[C@H]3[C@H](O)[C@@H](O)[C@@H](O[C@H]4[C@H](O)[C@@H](O)[C@@H](O[C@H]5[C@H](O)[C@@H](O)[C@@H](O[C@H]6[C@H](O)[C@@H](O)C(O)O[C@@H]6CO)O[C@@H]5CO)O[C@@H]4CO)O[C@@H]3CO)O[C@@H]2CO)[C@H](O)[C@@H](O)[C@@H]1O (stereo partly shown) [M6, maltohexaose]
X-ray crystal structure, 4.0 Å, crystal soak: ternary complex with Mtb GlgE bound to maltose and maltohexaose (GlgE-M6) was solved
